Test results published in US20130029983A1, “AMINOTHIENOPYRIDAZINE INHIBITORS OF TAU ASSEMBLY” (priority 2009, published 2013).
Where two headings read alike, the source gives them in different places.

Legend:
K18PL tau = molecular target: T1, K18PL tau (Homo sapiens, UniProt P10636, P618L); test: K18PL tau centrifugation (sedimentation) assay, SDS-PAGE densitometry; format: biochemical; details: for Emax: SDS-PAGE of soluble and insoluble fractions after centrifugation, read-out: K18PL Sed. Assay, maximal percent inhibition of K18PL fibrillization
T1 construct: (K18PL; amino acids 244-369); made in house
How it was run: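 Heparin-induced fibrillization of K18PL tau in sodium acetate buffer with test compound; mixtures were centrifuged and soluble versus insoluble K18PL quantified by SDS-PAGE densitometry. A repeat run centrifuged DMSO- and compound-treated mixtures for 30 min at time zero to remove pelletable material before incubation.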

[1] = Turbidimetric solubility in fibrillization buffer; format: physicochemical; details: 100 mM NaOAc pH 7.0 fibrillization buffer, 1% DMSO
Description: Compounds were serially diluted in DMSO to achieve a 2.5 fold dilution series from 20 mM down 8 points to […] on a 384-well master plate (Costar 3672). Aliquots (2 μL) were transferred to a clear 96-well assay plate (Fisher 12-565-501) containing 198 μL fibrillization buffer (100 mM NaOAc pH 7.0) for a 100-fold dilution (200 μM down to 0.3 μM). The plate was incubated with agitation for 2.5 h, and the absorbance at 550, 600, 650 and 700 nm was measured on a Spectramax M5 spectrophotometer. DMSO (1%) in fibrillization buffer served as a control that was subtracted from each data point. The absorbances were averaged and the concentration at which the average absorbance rose above 0.03 AU was an indication of insoluble compound, with solubility limits reported as the previous concentration in the dilution series.

[2] = Full PK analysis and oral administration, brain and plasma levels; format: in vivo, mice; details: for half-life: 2 mg/kg, full PK analysis, FIG. 6A
Description: FIG. 6. (A) Brain and plasma level of F4 (CNDR-51362) after i.v. administration at 2 mg/Kg; (B) Brain and plasma level of F4 (CNDR-51362) after oral administration at 5 mg/Kg; (C) Brain and plasma level of F3 (CNDR-51349) after oral administration at 5 mg/Kg
Test compounds underwent preliminary evaluations of brain penetration, in which 5 mg/Kg of each compound was administered intraperitoneally (i.p.) to a group of three normal mice; drug levels in brain and plasma were determined at a single time-point (1 h) by LC-MS/MS using pre-validated calibration curves. […] However, both esters appeared to have relatively short half-lives in plasma, as indicated by the limited amount of parent drug detected after 1 h from administration of the compounds. […] CNDR-51362 was selected for full PK analysis in which brain and plasma drug levels were determined at six time points (i.e., 30 min, 1 h, 2 h, 4 h, 8 h, and 16 h). The results from this experiment, illustrated in FIG. 6A, confirmed that the total B/P exposure ratio over 16 h is 1.6. […] Finally, in order to investigate the potential for ATPZ congeners to be orally administered, we evaluated brain and plasma level of CNDR-51362 and CNDR-51349 after oral administration of 5 mg/Kg.
Brain tissue was homogenized in 10 mM ammonium acetate, pH 5.7 (1:2; w/v) using a handheld sonic homogenizer. Plasma was obtained from blood that was collected into a 1.5 mL tube containing 0.5M EDTA solution and subjected to centrifugation for 10 min. at 4500 g at 4° C. Aliquots (50 μL) of brain homogenate or plasma were mixed with 0.2 mL of acetonitrile, centrifuged at 15,000 g, and the resulting supernatants were used for subsequent LC-MS/MS analysis. The LC-MS/MS system was comprised of an Aquity HPLC and a TQ MS that was controlled using MassLynx software (Waters Corporation, Milford, Mass., USA). Compounds were detected using multiple reaction monitoring (MRM) of their specific collision-induced ion transitions. Samples (5 μL) were separated on an Aquity BEH C18 column (1.7 μm, 2.1×50 mm) at 35° C. Operation was in positive electrospray ionization mode, with mobile phase A of 0.1% (v/v) formic acid, and B of either acetonitrile or methanol with 0.1% (v/v) formic acid at a flow rate of 0.6 mL/min using a gradient from 5% to 95% B over two min., followed by wash and re-equilibration steps. The MS was operated with a desolvation temperature of 450° C. and a source temperature of 150° C. Desolvation and source nitrogen gas flows were 900 L/hr and 50 L/hr, respectively. Source and MS/MS voltages were optimized for each compound using the MassLynx auto tune utility. Standard curves were generated for each compound from brain homogenate and plasma samples that had compound added at 4, 40, 400 and 4000 ng/mL and extracted as above. Peak areas were plotted against concentration and a 1/x weighted linear regression curve was used to quantify the tissue-derived samples using the average peak area from triplicate injections.

Aβ(1-42) = molecular target: T2, Aβ(1-42) (Homo sapiens, UniProt P05067); test: Aβ(1-42) fibrillization assay (ThT); format: biochemical; details: Table 3; highest tested concentration (80 μM); read-out: Aβ42 ThT Assay % Inhib.
T2 construct: Synthetic Aβ(1-42) peptide (rPeptide); purchased rPeptide
T2 sequence (P05067 672-713 limits assumed): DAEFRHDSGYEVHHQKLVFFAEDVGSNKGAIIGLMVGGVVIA

T1 sequence (P10636 561-686 P618L): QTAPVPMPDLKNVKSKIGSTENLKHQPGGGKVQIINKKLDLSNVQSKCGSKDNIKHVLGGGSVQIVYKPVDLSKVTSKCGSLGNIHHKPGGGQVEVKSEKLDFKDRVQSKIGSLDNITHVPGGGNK

Row | Compound | Emax (K18PL tau) [%] | Water Solubility [1] [µM] | Kp at 16 h ([2]; mouse, brain and plasma, iv, over 16 h, six time points, FIG. 6A (i.v. 2 mg/Kg), read-out: Total brain-to-plasma (B/P) AUC exposure ratio) | half-life ([2]; mouse, brain, iv, read-out: Elimination half-life in the brain (converted)) [h] | half-life ([2]; mouse, plasma, iv, read-out: Elimination half-life in plasma (converted)) [h] | bioavailability ([2]; mouse, plasma AUC after oral 5 mg/Kg versus i.v. 2 mg/Kg) [%] | Brain concentration after oral administration ([2]; oral 5 mg/Kg, FIGS. 6B and 6C, 5 mg/kg) | Tau Cent. Assay % Soluble (K18PL tau; Table 3, K18PL tau centrifugation assay) [%] | inhibition at 80 µM (Aβ(1-42)) [%] | melting point [°C]
1 | Nc1scc2c(C(=O)NC3CC3)nn(-c3ccc(Cl)cc3)c(=O)c12 [CNDR-51362, 5-Amino-3-(4-chlorophenyl)-N-cyclopropyl-4-oxo-3,4-dihydrothieno[3,4-d]pyridazine-1-carboxamide] | 69 | 32 | 1.6 | ~9.5 | ~7.4 | ~64 | significant brain concentrations |  |  | 
2 | CCOC(=O)c1nn(-c2ccc(Cl)cc2)c(=O)c2c(N)scc12 [Compound 17, Ethyl 5-amino-3-(4-chlorophenyl)-4-oxo-3,4-dihydrothieno[3,4-d]pyridazine-1-carboxylate] | 70 | 13 |  |  |  |  |  | 62 | 41 | 189 to 191
